Test results as given in patent US9056840B2, “Coelenterazine analogues and coelenteramide analogues” (JNC Corporation, priority 2010, dated 2015).

What was measured:
Assay type in all cases: physicochemical
apoaequorin [1] = molecular target: T1, apoaequorin (Aequorea victoria, UniProt P07164); experiment: Fluorescence spectra of semi-synthetic BFP (coelenteramide analogue + apoaequorin, CaCl2); conditions: 10 mM CaCl2 buffer, excitation 337 nm
T1 construct: purchased Chisso Corporation
Method: Semi-synthetic gFP was prepared from recombinant apoaequorin and coelenteramide analogues as follows. In 1 ml of 50 mM Tris-HC 1 (pH 7.6) containing 10 mM CaCl2 and 1 mM DTT, apoaequorin (0.2 mg) was mixed with 8 μl of a coelenteramide analogue (1 μg/μl in anhydrous methanol). The mixture was allowed to stand at 4° C. for 16 hours to prepare semi-synthetic BFP-like protein (hereinafter sometimes simply referred to as “semi-synthetic BFP”).
(§1) The fluorescence spectra were determined as follows. For coelenteramide analogue alone, the fluorescence was measured according to the procedures for semi-synthetic gFP and semi-synthetic BFP described in EXAMPLES 11 and 12, except for in the absence of apoaequorin, using 1 ml of 50 mM Tris-HCl (pH 7.6) containing 10 mM EDTA and 1 mM DTT or 1 ml of 50 mM Tris-HCl (pH 7.6) containing 10 mM CaCl2 and 1 mM DTT, in the final concentration of coelenteramide analogue adjusted to 8 μg/ml. The fluorescence spectra were measured at 25° C. in a quartz cell (10 mm light path length) using a Jasco FP-6500 spectrofluorometer (excitation wavelength: 337 nm, emission/excitation bandwidth: 3 nm; response: 0.5 sec, scan speed, 1000 nm/min).

[2] = Fluorescence spectra of coelenteramide analogue alone (absence of apoaequorin); conditions: analogue alone 8 μg/ml; for Coelenteramide (Buffer containing CaCl2) Fluorescence intensity (rlu) / Coelenteramide (Buffer containing CaCl2) Maximum fluorescence wavelength λmax (nm): 10 mM CaCl2 buffer pH 7.6, excitation 337 nm; for Coelenteramide (EDTA-containing buffer) Fluorescence intensity (rlu) / Coelenteramide (EDTA-containing buffer) Maximum fluorescence wavelength λmax (nm): 10 mM EDTA buffer pH 7.6, excitation 337 nm
Method: as §1

apoaequorin [3] = molecular target: T1, apoaequorin; experiment: Fluorescence spectra of semi-synthetic gFP (coelenteramide analogue + apoaequorin, EDTA); conditions: 10 mM EDTA buffer, excitation 337 nm
Method: Semi-synthetic gFP was prepared from recombinant apoaequorin and coelenteramide analogues as follows. In 1 ml of 50 mM Tris-HC 1 (pH 7.6) containing 10 mM EDTA and 1 mM DTT, apoaequorin (0.2 mg) was mixed with 8 μl of a coelenteramide analogue (1 μg/μl in anhydrous methanol). The mixture was allowed to stand 4° C. for 16 hours to prepare semi-synthetic gFP-like protein (hereinafter sometimes simply referred to as “semi-synthetic gFP”).
as §1

T1 sequence (P07164 other isoform, or with tags, fused parts or gaps with the stated changes): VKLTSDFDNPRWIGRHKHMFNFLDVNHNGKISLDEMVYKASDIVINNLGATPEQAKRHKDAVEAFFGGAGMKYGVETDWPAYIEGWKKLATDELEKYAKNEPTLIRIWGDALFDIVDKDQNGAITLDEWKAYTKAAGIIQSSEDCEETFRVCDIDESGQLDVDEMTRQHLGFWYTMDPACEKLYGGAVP

Structure (SMILES): O=C(Cc1ccc(O)cc1)Nc1ncc(-c2ccc(O)cc2)nc1-c1ccccc1 [Compound 4a, 2-(4-Hydroxyphenyl)-N-[5-(4-hydroxyphenyl)-3-phenylpyrazin-2-yl]acetamide]
- Fluorescence intensity (apoaequorin [1]): 148.9 rlu
- Semi-synthetic BFP (Buffer containing CaCl2) Maximum fluorescence wavelength λmax (nm) (apoaequorin [1]): 507.5 nm
- Coelenteramide (Buffer containing CaCl2) Fluorescence intensity (rlu) [2]: 2.0 rlu
- Coelenteramide (Buffer containing CaCl2) Maximum fluorescence wavelength λmax (nm) [2]: 467.5 nm
- Coelenteramide (EDTA-containing buffer) Fluorescence intensity (rlu) [2]: 1.9 rlu
- Coelenteramide (EDTA-containing buffer) Maximum fluorescence wavelength λmax (nm) [2]: 471.0 nm
- Semi-synthetic gFP (EDTA-containing buffer) Fluorescence intensity (rlu) (apoaequorin [3]): 82.9 rlu
- Semi-synthetic gFP (EDTA-containing buffer) Maximum fluorescence wavelength λmax (nm) (apoaequorin [3]): 521.5 nm

Structure (SMILES): O=C(Cc1ccc(O)cc1)Nc1ncc(-c2ccc(O)cc2)nc1/C=C/c1ccccc1 [Compound 4b]
- Fluorescence intensity (apoaequorin [1]): 52.7 rlu
- Semi-synthetic BFP (Buffer containing CaCl2) Maximum fluorescence wavelength λmax (nm) (apoaequorin [1]): 544.5 nm
- Coelenteramide (Buffer containing CaCl2) Fluorescence intensity (rlu) [2]: 9.4 rlu
- Coelenteramide (Buffer containing CaCl2) Maximum fluorescence wavelength λmax (nm) [2]: 494.5 nm
- Coelenteramide (EDTA-containing buffer) Fluorescence intensity (rlu) [2]: 7.1 rlu
- Coelenteramide (EDTA-containing buffer) Maximum fluorescence wavelength λmax (nm) [2]: 495.5 nm
- Semi-synthetic gFP (EDTA-containing buffer) Fluorescence intensity (rlu) (apoaequorin [3]): 43.2 rlu
- Semi-synthetic gFP (EDTA-containing buffer) Maximum fluorescence wavelength λmax (nm) (apoaequorin [3]): 530.0 nm

Structure (SMILES): C=C(c1ccccc1)c1nc(-c2ccc(O)cc2)cnc1NC(=O)Cc1ccc(O)cc1 [Compound 4c, 2-(4-Hydroxyphenyl)-N-[5-(4-hydroxyphenyl)-3-(1-phenylvinyl)pyrazin-2-yl]acetamide]
- Fluorescence intensity (apoaequorin [1]): 25.6 rlu
- Semi-synthetic BFP (Buffer containing CaCl2) Maximum fluorescence wavelength λmax (nm) (apoaequorin [1]): 492.5 nm
- Coelenteramide (Buffer containing CaCl2) Fluorescence intensity (rlu) [2]: 12.4 rlu
- Coelenteramide (Buffer containing CaCl2) Maximum fluorescence wavelength λmax (nm) [2]: 471.0 nm
- Coelenteramide (EDTA-containing buffer) Fluorescence intensity (rlu) [2]: 11.8 rlu
- Coelenteramide (EDTA-containing buffer) Maximum fluorescence wavelength λmax (nm) [2]: 475.5 nm
- Semi-synthetic gFP (EDTA-containing buffer) Fluorescence intensity (rlu) (apoaequorin [3]): 32.1 rlu
- Semi-synthetic gFP (EDTA-containing buffer) Maximum fluorescence wavelength λmax (nm) (apoaequorin [3]): 499.0 nm

Structure (SMILES): O=C(Cc1ccc(O)cc1)Nc1ncc(-c2ccc(O)cc2)nc1-c1cccc2ccccc12 [Compound 4d, 2-(4-Hydroxyphenyl)-N-[5-(4-hydroxyphenyl)-3-(naphthalen-1-yl)pyrazin-2-yl]acetamide]
- Fluorescence intensity (apoaequorin [1]): 98.3 rlu
- Semi-synthetic BFP (Buffer containing CaCl2) Maximum fluorescence wavelength λmax (nm) (apoaequorin [1]): 487.0 nm
- Coelenteramide (Buffer containing CaCl2) Fluorescence intensity (rlu) [2]: 12.9 rlu
- Coelenteramide (Buffer containing CaCl2) Maximum fluorescence wavelength λmax (nm) [2]: 463.5 nm
- Coelenteramide (EDTA-containing buffer) Fluorescence intensity (rlu) [2]: 12.4 rlu
- Coelenteramide (EDTA-containing buffer) Maximum fluorescence wavelength λmax (nm) [2]: 462.5 nm
- Semi-synthetic gFP (EDTA-containing buffer) Fluorescence intensity (rlu) (apoaequorin [3]): 58.8 rlu
- Semi-synthetic gFP (EDTA-containing buffer) Maximum fluorescence wavelength λmax (nm) (apoaequorin [3]): 504.5 nm

Structure (SMILES): O=C(Cc1ccc(O)cc1)Nc1ncc(-c2ccc(O)cc2)nc1-c1ccc2ccccc2c1 [Compound 4e, 2-(4-Hydroxyphenyl)-N-[5-(4-hydroxyphenyl)-3-(naphthalen-2-yl)pyrazin-2-yl]acetamide]
- Fluorescence intensity (apoaequorin [1]): 85.6 rlu
- Semi-synthetic BFP (Buffer containing CaCl2) Maximum fluorescence wavelength λmax (nm) (apoaequorin [1]): 492.5 nm
- Coelenteramide (Buffer containing CaCl2) Fluorescence intensity (rlu) [2]: 28.6 rlu
- Coelenteramide (Buffer containing CaCl2) Maximum fluorescence wavelength λmax (nm) [2]: 478.0 nm
- Coelenteramide (EDTA-containing buffer) Fluorescence intensity (rlu) [2]: 28.9 rlu
- Coelenteramide (EDTA-containing buffer) Maximum fluorescence wavelength λmax (nm) [2]: 478.0 nm
- Semi-synthetic gFP (EDTA-containing buffer) Fluorescence intensity (rlu) (apoaequorin [3]): 72.6 rlu
- Semi-synthetic gFP (EDTA-containing buffer) Maximum fluorescence wavelength λmax (nm) (apoaequorin [3]): 487.0 nm

Structure (SMILES): O=C(Cc1ccc(O)cc1)Nc1ncc(-c2ccc(O)cc2)nc1-c1cccs1 [Compound 4f, 2-(4-Hydroxyphenyl)-N-[5-(4-hydroxyphenyl)-3-(thiophen-2-yl)pyrazin-2-yl]acetamide]
- Fluorescence intensity (apoaequorin [1]): 96.4 rlu
- Semi-synthetic BFP (Buffer containing CaCl2) Maximum fluorescence wavelength λmax (nm) (apoaequorin [1]): 527.0 nm
- Coelenteramide (Buffer containing CaCl2) Fluorescence intensity (rlu) [2]: 2.2 rlu
- Coelenteramide (Buffer containing CaCl2) Maximum fluorescence wavelength λmax (nm) [2]: 447.0 nm
- Coelenteramide (EDTA-containing buffer) Fluorescence intensity (rlu) [2]: 2.3 rlu
- Coelenteramide (EDTA-containing buffer) Maximum fluorescence wavelength λmax (nm) [2]: 448.5 nm
- Semi-synthetic gFP (EDTA-containing buffer) Fluorescence intensity (rlu) (apoaequorin [3]): 70.5 rlu
- Semi-synthetic gFP (EDTA-containing buffer) Maximum fluorescence wavelength λmax (nm) (apoaequorin [3]): 536.5 nm

Structure (SMILES): O=C(Cc1ccc(O)cc1)Nc1ncc(-c2ccc(O)cc2)nc1-c1ccsc1 [Compound 4g, 2-(4-Hydroxyphenyl)-N-[5-(4-hydroxyphenyl)-3-(thiophen-3-yl)pyrazin-2-yl]acetamide]
- Fluorescence intensity (apoaequorin [1]): 195.7 rlu
- Semi-synthetic BFP (Buffer containing CaCl2) Maximum fluorescence wavelength λmax (nm) (apoaequorin [1]): 501.5 nm
- Coelenteramide (Buffer containing CaCl2) Fluorescence intensity (rlu) [2]: 6.1 rlu
- Coelenteramide (Buffer containing CaCl2) Maximum fluorescence wavelength λmax (nm) [2]: 470.5 nm
- Coelenteramide (EDTA-containing buffer) Fluorescence intensity (rlu) [2]: 5.5 rlu
- Coelenteramide (EDTA-containing buffer) Maximum fluorescence wavelength λmax (nm) [2]: 473.0 nm
- Semi-synthetic gFP (EDTA-containing buffer) Fluorescence intensity (rlu) (apoaequorin [3]): 108.5 rlu
- Semi-synthetic gFP (EDTA-containing buffer) Maximum fluorescence wavelength λmax (nm) (apoaequorin [3]): 512.5 nm

Structure (SMILES): O=C(Cc1ccc(O)cc1)Nc1ncc(-c2ccc(O)cc2)nc1-c1csc2ccccc12 [Compound 4i, N-[3-(Benzo[b]thiophen-3-yl)-5-(4-hydroxyphenyl)pyrazin-2-yl]-2-(4-hydroxyphenyl) acetamide]
- Fluorescence intensity (apoaequorin [1]): 80.0 rlu
- Semi-synthetic BFP (Buffer containing CaCl2) Maximum fluorescence wavelength λmax (nm) (apoaequorin [1]): 494.0 nm
- Coelenteramide (Buffer containing CaCl2) Fluorescence intensity (rlu) [2]: 11.8 rlu
- Coelenteramide (Buffer containing CaCl2) Maximum fluorescence wavelength λmax (nm) [2]: 468.0 nm
- Coelenteramide (EDTA-containing buffer) Fluorescence intensity (rlu) [2]: 12.1 rlu
- Coelenteramide (EDTA-containing buffer) Maximum fluorescence wavelength λmax (nm) [2]: 471.5 nm
- Semi-synthetic gFP (EDTA-containing buffer) Fluorescence intensity (rlu) (apoaequorin [3]): 106.5 rlu
- Semi-synthetic gFP (EDTA-containing buffer) Maximum fluorescence wavelength λmax (nm) (apoaequorin [3]): 512.5 nm

Structure (SMILES): O=C(Cc1ccc(O)cc1)Nc1ncc(-c2ccc(O)cc2)nc1-c1ccc(O)cc1 [Compound 4j, N-[3,5-Bis(4-hydroxyphenyl)pyrazin-2-yl]-2-(4-hydroxyphenyl)acetamide]
- Fluorescence intensity (apoaequorin [1]): 100.5 rlu
- Semi-synthetic BFP (Buffer containing CaCl2) Maximum fluorescence wavelength λmax (nm) (apoaequorin [1]): 489.0 nm
- Coelenteramide (Buffer containing CaCl2) Fluorescence intensity (rlu) [2]: 22.4 rlu
- Coelenteramide (Buffer containing CaCl2) Maximum fluorescence wavelength λmax (nm) [2]: 481.0 nm
- Coelenteramide (EDTA-containing buffer) Fluorescence intensity (rlu) [2]: 22.5 rlu
- Coelenteramide (EDTA-containing buffer) Maximum fluorescence wavelength λmax (nm) [2]: 482.5 nm
- Semi-synthetic gFP (EDTA-containing buffer) Fluorescence intensity (rlu) (apoaequorin [3]): 69.7 rlu
- Semi-synthetic gFP (EDTA-containing buffer) Maximum fluorescence wavelength λmax (nm) (apoaequorin [3]): 492.5 nm

Structure (SMILES): O=C(Cc1ccc(O)cc1)Nc1ncc(-c2ccc(O)cc2)nc1-c1cc2sccc2s1 [Compound 4k, 2-(4-Hydroxyphenyl)-N-[5-(4-hydroxyphenyl)-3-(thieno[3,2-b]thiophen-2-yl)pyrazin-2-yl]acetamide]
- Fluorescence intensity (apoaequorin [1]): 148.2 rlu
- Semi-synthetic BFP (Buffer containing CaCl2) Maximum fluorescence wavelength λmax (nm) (apoaequorin [1]): 538.5 nm
- Coelenteramide (Buffer containing CaCl2) Fluorescence intensity (rlu) [2]: 9.7 rlu
- Coelenteramide (Buffer containing CaCl2) Maximum fluorescence wavelength λmax (nm) [2]: 491.0 nm
- Coelenteramide (EDTA-containing buffer) Fluorescence intensity (rlu) [2]: 10.3 rlu
- Coelenteramide (EDTA-containing buffer) Maximum fluorescence wavelength λmax (nm) [2]: 487.5 nm
- Semi-synthetic gFP (EDTA-containing buffer) Fluorescence intensity (rlu) (apoaequorin [3]): 139.9 rlu
- Semi-synthetic gFP (EDTA-containing buffer) Maximum fluorescence wavelength λmax (nm) (apoaequorin [3]): 532.0 nm

Structure (SMILES): O=C(Cc1ccc(O)cc1)Nc1ncc(-c2ccc(O)cc2)nc1-c1cc2sc3ccsc3c2s1 [Compound 4l, 2-(4-Hydroxyphenyl)-N-[5-(4-hydroxyphenyl)-3-(thieno[3,2-b:2′,3′-d]thiophen-2-yl)pyrazin-2-yl]acetamide]
- Fluorescence intensity (apoaequorin [1]): 63.5 rlu
- Semi-synthetic BFP (Buffer containing CaCl2) Maximum fluorescence wavelength λmax (nm) (apoaequorin [1]): 468.0 nm
- Coelenteramide (Buffer containing CaCl2) Fluorescence intensity (rlu) [2]: 8.8 rlu
- Coelenteramide (Buffer containing CaCl2) Maximum fluorescence wavelength λmax (nm) [2]: 523.0 nm
- Coelenteramide (EDTA-containing buffer) Fluorescence intensity (rlu) [2]: 9.3 rlu
- Coelenteramide (EDTA-containing buffer) Maximum fluorescence wavelength λmax (nm) [2]: 523.5 nm
- Semi-synthetic gFP (EDTA-containing buffer) Fluorescence intensity (rlu) (apoaequorin [3]): 140.5 rlu
- Semi-synthetic gFP (EDTA-containing buffer) Maximum fluorescence wavelength λmax (nm) (apoaequorin [3]): 524.5 nm

Structure (SMILES): O=C(Cc1ccc(O)cc1)Nc1ncc(-c2ccc(O)cc2)nc1-c1ccc([N+](=O)[O-])cc1 [Compound 4o, 2-(4-Hydroxyphenyl)-N-[5-(4-hydroxyphenyl)-3-(4-nitrophenyl)pyrazin-2-yl]acetamide]
- Fluorescence intensity (apoaequorin [1]): 3.9 rlu
- Semi-synthetic BFP (Buffer containing CaCl2) Maximum fluorescence wavelength λmax (nm) (apoaequorin [1]): 477.5 nm
- Coelenteramide (Buffer containing CaCl2) Fluorescence intensity (rlu) [2]: 2.1 rlu
- Coelenteramide (Buffer containing CaCl2) Maximum fluorescence wavelength λmax (nm) [2]: 478.5 nm
- Coelenteramide (EDTA-containing buffer) Fluorescence intensity (rlu) [2]: 2.1 rlu
- Coelenteramide (EDTA-containing buffer) Maximum fluorescence wavelength λmax (nm) [2]: 482.5 nm
- Semi-synthetic gFP (EDTA-containing buffer) Fluorescence intensity (rlu) (apoaequorin [3]): 3.4 rlu
- Semi-synthetic gFP (EDTA-containing buffer) Maximum fluorescence wavelength λmax (nm) (apoaequorin [3]): 485.0 nm
